Data from patent publication US4080467A, “Pharmaceutical compositions comprising 1,3-dithiolan-2-ylidene malonate derivatives” (Nihon Nohyaku Co., Ltd., priority 1976, dated 1978).

Legend:
[1] = test system: acute liver damage associated with discrete lobular necrosis (D-galactosamine); assay: Protective effect on acute hepatitis with mesenchymal reaction and discrete lobular necrosis (D-galactosamine model); type: in vivo, male rat (SD strain); settings: 100 mg/kg oral 6 h before D-galactosamine
Protocol: D-Galactosamine is a compound which induces a discrete lobular necrosis associated with mesenchymal reaction similar to the change observed in human viral hepatitis, so that it is frequently used in producing a model for viral hepatitis.
The compound of this invention or anethol trithion was administered orally to the male rat (SD strain) at the dose of 100 mg/kg. Six hours after it, D-galacetosamine was intraperitoneally administered at the dose of 600 mg/kg. Four hours after it, an additional 300 mg/kg was administered intraperitoneally. Eight hours after it, the animals were sacrificed to collect the blood samples. P-GPT activity and triglyceride in the liver were measured to evaluate the effect of the compound of this invention.

[2] = test system: Acute Liver Damage associated with Centrilobular Necrosis (carbon tetrachloride); assay: Protective effect on acute liver damage associated with centrilobular necrosis (carbon tetrachloride model); type: in vivo, mice (four-week-old male, dd strain); settings: 250 mg/kg oral 6 h before CCl4, average of 5 to 6 mice; for p-GPT (plasma glutamic-pyruvic transaminase activity): 24 h after CCl4, values over 1,000 regarded as 1,000; for Liver Damage Index: 0 normal, 2 slightly recognized, 4 clearly observable damage, 6 heavy damage
Text: Carbon tetrachloride (CCl4) administration induces centrilobular necrosis of the liver associated with loss of diphosphopyridine nucleotide, hepatic glycogen, coenzyme A and increase in neutral fat. Release of several enzymes from the hepatocytes, and increases of enzyme activities in the plasma are recognized as the result of the damage of the liver. A suitable means for evaluating the degree of damage induced by CCl4 or the degree of protection afforded by drugs is to study the plasma glutamic-pyruvic transaminase (p-GPT) activity.
Method: The test compounds were dissolved or suspended in olive oil and administered orally at the dose of 250 mg/kg to the mice (Four-week-old male mice-dd strain). After 6 hours, CCl4 was administered orally (0.05 ml/kg as olive oil solution). Animals were killed 24 hours after CCl4 administration, and the liver was grossly observed. The plasma was obtained by centrifugation. Activities of p-GPT were determined by the method of Reitman and Frankel and expressed in Karmen units.
Score for liver damage was as follows: […]
4 Clearly observable damage
Each figure indicates average of 5 to 6 mice. Values of p-GPT over 1,000 Karmen unit regarded as 1,000 for calculation of average for convenience.

[3] = test system: Chronic Liver Damage (thioacetamide); assay: Therapeutic effect on chronic liver damage (thioacetamide model), BSP test; type: in vivo, rats (Sprague Dawley strain); settings: 12 times TAA 100 mg/kg, then diet + 0.2% compound
Protocol: In the tests of this Example, TAA was repeatedly administered to animals to prepare test animals suffering from somewhat chronic liver damages, and then the present compounds were administered thereto to know whether or not the compounds were effective against chronic hepatitis.
The degree of the liver damage and the therapeutic effects of the compounds were evaluated according to BSP test. The BSP test is a method in which BSP (sulfobromophthalein sodium), a dye known to be quickly metabolized in and excreted from the liver, is intravenously injected into animals and, after a definite period of time, the blood is taken out to measure the amount of BSP remaining in the plasma. In case the animals are suffering from the liver damage, the dye will remain, according to the degree of the damage, at the stage where a major portion of BSP is metabolized and excreted in the case of normal animals.
Five groups of rats (Sprague Dawley strain) were treated as follows:
Group A: The rats were orally administered with 100 mg/kg of thioacetamide,at 3 days intervals for 36 days (12 times of the administration), then were submitted for 10 days to a normal diet.
Group B: The rats were orally administered with 100 mg/kg of thioacetamide at 3 days intervals for 36 days (12 times of the administration), then were submitted for 10 days to the normal diet + 0.2% of compound 4.
Group C: The rats were orally administered with 100 mg/kg of thioacetamide at 3 days intervals for 36 days (12 times of the administration) then were submitted for 10 days to the normal diet + 0.2% of compound 2.
Group D: The rats were orally administered with 100 mg/kg of thioacetamide at 3 days intervals for 36 days (12 times of the administration) then were submitted for 10 days to the normal diet + 0.2% of anethol trithion.
Group E: The rats were submitted to the normal diet as the control.
Five rats were sacrified from each group at appropriate intervals for BSP (sulfobromophthalein) test, the results of which were shown as amounts (mg) of BSP remaining in 1 dl of plasma.

[4] = in vivo; settings: mouse, po
[5] = Effect on concentration of ethyl alcohol in the blood; type: in vivo, mice; settings: 250 mg/kg oral 6 h before ethyl alcohol 1,000 mg/kg
Protocol: The test compounds are dissolved or suspended in olive oil and administered orally at the dose of 250 mg/kg to the mice. After 6 hours, 1,000 mg/kg of ethyl alcohol was given orally. Blood was taken in a capillary from caudal vein at the time indicated in the results. The plasma was obtained by centrifugation. The concentration of ethyl alcohol in the plasma was measured by FID type gas liquid chromatography. Five mice were used for each group.

[6] = test system: bile flow and biliary salt; assay: Cholagogic action: bile flow and excretion of biliary salt; type: in vivo, male rat (4 week-aged, SD-JCL strain); settings: 200 mg/kg oral; for bile flow / excretion of biliary salt: before treatment = 100
Protocol: The male rat (4 week-aged, SD-JCL strain) was anesthetized with sodium pentobarbital (37.5 mg/kg, intraperitoneal injection). The abdominal cavity was opened through a midline incision. The common bile duct was catheterized with polyethylene tube o.d. 0.8 mm. The catheter was brought to the outside through the abdominal incision wound prior to closing. Bile was collected from the catheter continuously with time intervals of one hour. The quantity of bile produced in one hour was determined by weighing and that of biliary salt was determined by enzymatic method (Ikagaku Jikkenho Koza 1B, Biological Constituents II, edited by Tamio YAMAKAWA). The amount of biliary salts was represented as cholic acid equivalent.
In the representation of the results, the quantities of bile and biliary salts produced in one hour prior to the administration of drug were taken as 100. The compound of this invention was orally administered at the dose of 200 mg/kg. As reference anethol trithion was used.

[7] = test system: acute liver damage associated with periportal necrosis (allyl alcohol); assay: Protective effect on acute liver damage associated with periportal necrosis (allyl alcohol model), BSP test; type: in vivo, male mouse (4 week-old dd-strain); settings: 100 mg/kg oral 6 h before allyl alcohol 0.075 ml/kg; 24 h after
Protocol: The compound of this invention or anethol trithion was orally administered to the male mouse (4 week-old dd-strain) at the dose of 100 mg/kg. Six hours after it, allyl alcohol was orally administered at the dose of 0.075 ml/kg. Twenty four hours after it, the animals were sacrificed to collect blood samples. The residual quantity of BSP was measured by BSP test, from which the protective effect of the compound of this invention was evaluated.

| SMILES | Triglyceride in liver [1] [mg/g] | p-GPT [1] [Karmen unit] | p-GPT (plasma glutamic-pyruvic transaminase activity) [2] [Karmen units] | Liver Damage Index [2] | Concentration of BSP in plasma ([3]; 2 Days) [mg/dL] | Concentration of BSP in plasma ([3]; 5 Days) [mg/dL] | Concentration of BSP in plasma ([3]; 10 Days) [mg/dL] | bile flow ([6]; 1 hour after treatment) | excretion of biliary salt ([6]; 1 hour after treatment) | bile flow ([6]; 2 hours after treatment) | excretion of biliary salt ([6]; 2 hours after treatment) | bile flow ([6]; 3 hours after treatment) | excretion of biliary salt ([6]; 3 hours after treatment) | bile flow ([6]; 4 hours after treatment) | excretion of biliary salt ([6]; 4 hours after treatment) | bile flow ([6]; 5 hours after treatment) | excretion of biliary salt ([6]; 5 hours after treatment) | Quantity of total excreted bile for 5 hours relative to control ([6]; versus control) [times] | further results |
| --- | --- | --- | --- | --- | --- | --- | --- | --- | --- | --- | --- | --- | --- | --- | --- | --- | --- | --- | --- |
| CCOC(=O)C(C(=O)OCC)=C1SCCS1 [Compound 2, Diethyl 1,3-dithiolan-2-ylidene malonate] | 7.2 ± 1.5 | 68±32 | 47 | 0.8 | 9.8 ± 3.1 | 4.7 ± 0.8 | 0.8 ± 0.2 | 108±3.8 | 108±18 | 116±6.2 | 120±12 | 109±8.3 | 133±18 | 108±8.5 | 120±21 | 98±3.8 | 86±8.9 | 1.15 | LD50 [4]: 1110 mg/kg; Concentration of Ethyl alcohol in Plasma ([5]; 0 min): 8±3 ppm; Concentration of Ethyl alcohol in Plasma ([5]; 5 min): 712±75 ppm; Concentration of Ethyl alcohol in Plasma ([5]; 15 min): 65±98 ppm; Concentration of Ethyl alcohol in Plasma ([5]; 30 min): 422±100 ppm; Concentration of Ethyl alcohol in Plasma ([5]; 60 min): 15±8 ppm; Amount of total biliary salts excreted for 5 hours relative to control ([6]; versus control): 1.63 times |
| COc1ccc(-c2cc(=S)ss2)cc1 [Anethol trithion, anethol trithion, reference compound] | 9.2 ± 1.5 | 106±30 | 38 | 1.6 | 9.7 ± 4.1 | 7.3 ± 3.4 | 0.9 ± 0.1 | 114±15 | 108±12 | 114±15 | 89±11 | 102±11 | 66±3.8 | 95±7.7 | 47±3.0 | 86±6.6 | 3.3±4.0 | 1.10 | Index of hepatotoxicity: BSP (residual quantity of BSP) [7]: 19.3±4.6 |
